Assay results: paper PMC3408453, “A Foldamer-Dendrimer Conjugate Neutralizes Synaptotoxic β-Amyloid Oligomers” (PLoS ONE, 2012)

Key:
[1] = biological target: T1, LMW fraction of Aβ oligomers (Homo sapiens, UniProt P05067); experiment: Concentration-dependent dot blot with SEC-separated LMW Aβ oligomer fraction; format: binding; conditions: 10 µg ligand spotted, BAM10 1∶500
T1 construct: a depsipeptide derivative of Aβ(1–42) was utilized; made in house; host or cells: chemical peptide synthesis (no expression host)
Method: ITC measurement for 7 indicated fractional stoichiometry for the low nM binding, which pointed to that the high affinity interaction involves only a fraction of the oligomeric Aβ sample. To localize the strongly binding fraction in the mixture, size exclusion chromatographic (SEC) separation was carried out and the resulting Aβ oligomer fractions were tested with 7 in concentration-dependent dot blot experiments. Two dominant peaks were found in the SEC chromatogram corresponding to the high molecular weight (HMW) and low molecular weight (LMW) components (Figure 7). […] In control experiments, specific and/or preferential binding of Aβ by the membrane itself were ruled out. These findings were in line with the ITC and ELISA results. It could be concluded that 7 preferentially bound to the LMW fraction at low nM concentration and also interacted with the HMW fraction at sub-µM level.
Figure 7 Selective binding to the LMW Aβ oligomers in the nM range. Size exclusion chromatographic separation of the HMW and LMW fractions of the Aβ oligomeric sample (top panel). Concentration-dependent dot blot experiments performed with the HMW (A) and the LMW fractions (B). The ligand loadings were 10 µg aliquots of 7, and the sequence specific antibody BAM10 (1∶500) was utilized. Lanes within the panels are parallel experiments. […]

oligomeric Aβ = biological target: T2, oligomeric Aβ (Homo sapiens, UniProt P05067); experiment: ThT binding experiment on oligomeric Aβ; conditions: oligomeric Aβ + ligand 1∶1, up to 24 h
T2 construct: a depsipeptide derivative of Aβ(1–42) was utilized; made in house; host or cells: chemical peptide synthesis (no expression host)
From the text: (§1) The data on 7 were in agreement with its largely helical structure, also found via NMR. […] This was in accord with the NMR results obtained for the recognition segment 1. The secondary structure was probed also with ThT binding experiments (Figure 9B). Pure Aβ oligomers bound ThT at a certain level. This was in accord with the staining with antibody OC; both are capable of recognizing the fibrillar (or protofibrillar) oligomers. […] The latter process is similar to affinity precipitation.
(§2) (A) Observed ellipticities in ECD for 36 μM Aβ oligomer (thick black), 9 μM 7 (thin black), and 36 μM Aβ +9 μM 7 (thick dashed). The hypothetical sum of the ECD curves of the pure samples (thin dashed). (B) ThT binding experiment carried out on 36 µM oligomeric Aβ (white bars) and on 36 µM oligomeric Aβ +7 1∶1 mixtures. The relative fluorescence values were monitored up to 24 h.
ThT (Sigma-Aldrich) was dissolved in 50 mM NaH2PO4/Na2HPO4 buffer (pH = 7.0) to a final concentration of 25 μM. […] Two identical 50 μM Aβ oligomer samples were prepared and one of them was mixed with 7 to a final concentration of 50 μM, and the ThT signal intensity was monitored up to further 24 h. […] ThT fluorescence was measured on a plate reader at […] and λem = 480 nm. Data mean values and S.D. were calculated from three parallel measurements.

Aβ oligomers = biological target: T3, Aβ oligomers (Homo sapiens, UniProt P05067); experiment: Electronic circular dichroism of Aβ oligomer with ligand; conditions: 0.25 equivalents ligand with 36 μM Aβ
T3 construct: a depsipeptide derivative of Aβ(1–42) was utilized; made in house; host or cells: chemical peptide synthesis (no expression host)
From the text: as §1, §2
CD spectra were measured on a Jasco J815 dichrograph in a 1.00 cm cell using PBS (pH = 7.4) as solvent. Three spectra were accumulated for each sample. The baseline spectrum recorded with only the solvent and it was subtracted from the raw data.

N=C(N)NCCC[C@@H](CC(=O)N[C@H]1CCCC[C@@H]1C(=O)N[C@H]1CCCC[C@@H]1C(=O)N[C@@H](CC(=O)O)CC(=O)N[C@H]1CCCC[C@@H]1C(=O)NCC(=O)NCC(=O)N[C@@H](CSC1CC(=O)N(CCC(=O)NCCNC(=O)CCN(CCC(=O)NCCNC(=O)CCN2C(=O)CC(SC[C@H](NC(=O)CNC(=O)CNC(=O)[C@H]3CCCC[C@@H]3NC(=O)C[C@H](CC(=O)O)NC(=O)[C@H]3CCCC[C@@H]3NC(=O)[C@H]3CCCC[C@@H]3NC(=O)C[C@H](CCCNC(=N)N)NC(=O)[C@H]3CCCC[C@@H]3N)C(N)=O)C2=O)CCN(CCC(=O)NCCNC(=O)CCN2C(=O)CC(SC[C@H](NC(=O)CNC(=O)CNC(=O)[C@H]3CCCC[C@@H]3NC(=O)C[C@H](CC(=O)O)NC(=O)[C@H]3CCCC[C@@H]3NC(=O)[C@H]3CCCC[C@@H]3NC(=O)C[C@H](CCCNC(=N)N)NC(=O)[C@H]3CCCC[C@@H]3N)C(N)=O)C2=O)CCC(=O)NCCNC(=O)CCN2C(=O)CC(SC[C@H](NC(=O)CNC(=O)CNC(=O)[C@H]3CCCC[C@@H]3NC(=O)C[C@H](CC(=O)O)NC(=O)[C@H]3CCCC[C@@H]3NC(=O)[C@H]3CCCC[C@@H]3NC(=O)C[C@H](CCCNC(=N)N)NC(=O)[C@H]3CCCC[C@@H]3N)C(N)=O)C2=O)C1=O)C(N)=O)NC(=O)[C@H]1CCCC[C@@H]1N (stereo partly drawn) [Compound 7]
Dot blot binding of LMW Aβ oligomer fraction [1]: saturation of binding in the low nanomolar region
Effect on ThT binding of Aβ oligomers (oligomeric Aβ): no significant effect on the ThT binding
ECD: effect on β-sheet content of Aβ (Aβ oligomers): did not lead to an immediate increase in the β-sheet content
